# Experiments:
# [1] = test system: Panc-1 tumors; experiment: Low dose warfarin in drinking water, orthotopic human tumor xenograft; type: in vivo, mouse
# Method: (FIG. 23A) Primary tumor burden after therapy with warfarin. Therapy was initiated when implanted tumors were visible by ultrasound (˜10 mm^3) and consisted of control (normal drinking water) or warfarin, administered in the drinking water at 0.5 mg/L (immunocompetent mice: Pan02 (n=4, control; 3, warfarin), KIC (n=10, control; 8, warfarin)) or 1 mg/L (Panc-1 (n=10, control; 8, warfarin), AsPC-1 (n=8, control; 6, warfarin), Capan-1 (n=10, control; 7, warfarin)) and continued for 2-4 weeks until control mice were moribund. Therapy in KIC mice was initiated at 3 weeks of age and continued for 4 weeks. (FIG. 23B) Metastases were determined grossly upon sacrifice and confirmed by histological evaluation of the liver. […] Incidence of metastasis is also indicated. […] Tumor volume determined by serial ultrasound. […] Therapy with mAb 10C9 (250 μg 2×/week) was initiated when tumors were established as above and persisted for 4 weeks. […] Error bars indicate s.e.m.
# (§1) (FIG. 24A) HEK293 cells engineered to stably express recombinant Gas6 were grown in the presence of Vitamin K or Vitamin K+warfarin. Gas6 levels and γ-carboxylation were assayed by immunoblotting conditioned media. Conditioned media from untransfected HEK293 cells was used as a negative control. (FIG. 24B) Panc1 cells were grown overnight in media with 1% serum with no additions (NT), warfarin (2 μM) or BGB324 (2 μM). Lysates were probed for total Axl (tAxl) and phosphorylated Axl (pAxl). (FIG. 24C) Panc1 cells were grown in the presence of control media, Vitamin K, warfarin or warfarin+Vitamin K. The level of phosphorylated Axl (pAXL, red) was determined by immunofluorescence. (FIG. 24D) Panc1 cells were grown overnight in media with 1% serum with no additions (control), warfarin (1 μM), Gas6 (1.3 nM) or Gas6+warfarin. Lysates were probed for phosphorylated Akt (pAkt) and actin. (FIG. 24E) Lysates from Panc1 tumors harvested from mice treated with control or warfarin were probed for expression of tAxl, pAxl, actin, pAKT, tAKT, and cleaved Parp. (FIG. 24F) The effect of warfarin on cell migration was assessed by a ‘scratch’ assay. Monolayers of the indicted cells were wounded with a pipet tip. The cells were incubated in media containing 2% serum+/−warfarin (2 μM) or media containing 2% serum+Gas6 (1.3 nM)+/−warfarin.
# (§2) FIGS. 26A-C. […] (FIG. 26A) the expression level of pAxl, Zeb1 and nuclear β-catenin in Panc1 cells in vitro was measured by immunofluorescence under normal culture conditions or after growth on collagen matrix and treatment with TGF-β (20 ng/ml) to induce epithelial to mesenchymal transition, with or without warfarin (2 μM). p-Axl was normalized to total Axl area. (FIG. 26B) Panc1 cells were treated with either SFM, recombinant Gas 6 (100 ng/ml) or Gas6 following pretreatment with 10C9 (mAb anti-Axl). Transition to a mesenchymal phenotype was characterized by changes in vimentin and nuclear Zeb1 expression determined by immunofluoresence. […] (FIG. 26C) Paraffin embedded sections of Panc-1 tumors were analyzed by immunofluorescence for markers of EMT.
# [2] = biological target: T1, Axl (Homo sapiens, UniProt P30530); experiment: Phosphorylated Axl in Panc-1 cells (western blot, immunofluorescence); type: cell-based; settings: overnight, 1% serum, 2 μM
# T1 construct: Lysates were probed for total Axl (tAxl) and phosphorylated Axl (pAxl); endogenous in cells; host or cells: Panc-1
# T1 sequence (P30530 26-894): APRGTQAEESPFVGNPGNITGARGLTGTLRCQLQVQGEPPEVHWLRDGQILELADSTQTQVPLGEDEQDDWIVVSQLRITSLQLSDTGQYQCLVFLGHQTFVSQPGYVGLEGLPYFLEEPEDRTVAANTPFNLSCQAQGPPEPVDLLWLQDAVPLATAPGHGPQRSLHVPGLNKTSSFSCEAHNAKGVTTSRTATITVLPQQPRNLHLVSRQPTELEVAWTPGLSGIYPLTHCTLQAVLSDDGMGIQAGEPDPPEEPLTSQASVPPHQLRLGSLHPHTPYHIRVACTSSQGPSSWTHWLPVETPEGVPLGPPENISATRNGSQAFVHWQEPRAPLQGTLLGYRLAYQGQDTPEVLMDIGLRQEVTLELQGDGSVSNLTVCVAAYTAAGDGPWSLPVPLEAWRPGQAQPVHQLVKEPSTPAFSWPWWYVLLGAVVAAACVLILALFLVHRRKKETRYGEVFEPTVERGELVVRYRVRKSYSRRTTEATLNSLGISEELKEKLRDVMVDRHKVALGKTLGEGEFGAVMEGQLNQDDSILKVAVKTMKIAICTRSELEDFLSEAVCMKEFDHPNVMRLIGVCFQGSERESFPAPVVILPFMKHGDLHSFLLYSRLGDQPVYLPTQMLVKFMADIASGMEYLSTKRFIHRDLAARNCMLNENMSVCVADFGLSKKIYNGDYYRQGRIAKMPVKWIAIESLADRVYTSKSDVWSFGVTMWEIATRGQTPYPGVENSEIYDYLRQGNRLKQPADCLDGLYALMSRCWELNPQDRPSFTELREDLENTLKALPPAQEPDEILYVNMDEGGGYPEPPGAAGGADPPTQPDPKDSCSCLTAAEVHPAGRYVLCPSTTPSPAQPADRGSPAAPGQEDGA
# Method: as §1
# [3] = biological target: vitamin K epoxide reductase (Homo sapiens, UniProt Q9BQB6); settings: cited from earlier work
# Chain of vitamin K epoxide reductase (Q9BQB6 whole entry): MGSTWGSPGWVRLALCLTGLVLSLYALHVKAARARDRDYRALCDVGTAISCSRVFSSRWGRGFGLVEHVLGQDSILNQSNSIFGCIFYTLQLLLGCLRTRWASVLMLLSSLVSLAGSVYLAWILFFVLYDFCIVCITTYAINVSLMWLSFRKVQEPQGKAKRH
# [4] = test system: Panc-1 cells; experiment: In vitro EMT assay (TGF-β and collagen); type: cell-based, human; settings: warfarin 2 μM
# Method: as §2
# [5] = test system: Mia PaCa-2 cells; experiment: Mesenchymal/epithelial markers by ICC; type: cell-based, human; settings: warfarin, in vitro
# Method: FIGS. 31A-B. Maintenance of mesenchymal phenotype is Axl dependent and inhibited by warfarin. (FIGS. 31A-B) Mia PaCa-2 cells were grown in 1% serum containing media the absence (Control) or presence of warfarin (2 μM) overnight. Cells were assessed for expression of phosphorylated Axl, nuclear Zeb1 (FIG. 31A) and vimentin and E-cadherin (FIG. 31B) by ICC. […] (FIG. 31B) Representative images of Vimentin and E-Cadherin expression are shown, total magnification 400×. Images were analyzed using Elements software. Welch's t-test*, p<0.05; **, p<0.01 vs control.
# Signaling and functional assays. Cells were grown to confluence in […] or 4 well chamber slides and treated overnight with low serum (1-2%) media+/−warfarin (2 μM) or 10C9 (1.1 μM, 168 μg/ml) overnight. Cells were subsequently analyzed by western blot or immunocytochemsitry (ICC).
# [6] = tumor lysates, low dose warfarin
# [7] = tumor sections, low dose warfarin
compound,measurement,setting,value
CC(=O)CC(c1ccccc1)c1c(O)c2ccccc2oc1=O (racemic) [Warfarin],intratumoral microvessel density,"[1]; Endomucin, low dose warfarin",reduced
same,expression of vimentin and E-cadherin in tumors,"[1]; immunofluorescence, low dose warfarin",reduced expression of vimentin and elevated the expression of E-cadherin
same,level of cleaved Parp,[1]; [6],increased
same,level of pAxl and pAkt in tumors,[1]; [6],substantially suppressed
same,cleaved caspase 3 and tumor necrosis,[1]; [7],elevated
same,expression of phosphorylated histone H3 (proliferation),[1]; [7],decreased
same,primary tumor growth,[1]; warfarin 1 mg/L drinking water,little effect
same,phosphorylation of Axl (pAxl),[2],inhibited basal pAxl levels
same,duration of action of a single dose,[3],2 to 5 days
same,Zeb1 and nuclear β-catenin levels,"[4]; TGF-β 20 ng/ml, collagen",significantly reduced
same,TGFβ and collagen I enhanced Axl expression and activation,[4],blocked
same,expression of the epithelial marker E-cadherin,[5],elevating
same,"pAxl levels, surface Axl expression, Zeb1 and vimentin",[5],reduced
